According to ChEMBL document CHEMBL1121753 (J Med Chem, 1981):

What was measured:
[1] = Compound was tested for dose required to kill 50 % of ADJ/PC6 mouse plasma cell tumor in a group
ADJ/PC6 = assay: Compound was tested for dose producing 90% reduction in tumor weight, in ADJ/PC6 mouse plasma cell tumor
[2] = Therapeutic index as the ratio of LD50 to ED50 of the compound

SMILES | LD50 [1] | ED90 (ADJ/PC6) | selectivity ratio [2]
[2H]C1([2H])CNP(=O)(N(CCCl)CCCl)OC1 (stereo unspecified) | 700 mg/kg | 12 mg/kg | 58
O=P1(N(CCCl)CCCl)NCCCO1 (stereo unspecified) [CYCLOPHOSPHAMIDE ANHYDROUS] | 260 mg/kg | 2.25 mg/kg | 116
